Assay results: US20080057136A1, “Disinfecting Composition and Methods of Making and Using Same” (priority 2003, published 2008)
≈ marks a conversion by molar mass, not a printed value. Like-named read-outs stand apart in the source and are kept apart here.

Legend:
dermatophyte infections = dermatophyte infections in animals; cited from earlier work
S. pyogenes ATCC 19615 = test: NCCLS broth microdilution MIC and MBC (Example 10); format: cell-based, Streptococcus pyogenes
Procedure: (§4) Strains of E. coli (ATCC 11229), D. aeruginosa (ATCC 15442), S. aureus (ATCC 25923), S. epidermidis (ATCC 12228), S. pyogenes (ATCC 19615), C. albicans (ATCC 10231), and T. rubrum (ATCC 28188) were used as “challenge microorganisms” in this study. Strains were removed from frozen stock and subcultured twice on blood agar to ensure that the strains had optimal growth and metabolic status before testing.
(§5) Hibiclens (industry comparator) and ciprofloxacin were added to the bacterial panel. Amphotericin B, fluconazole, and Hibiclens were added as comparative agents in the fungal panels.
(§6) For testing purposes, AMC, AMC components, and Hibiclens were diluted to 50% of the working solution to cover the proposed AMC use dilution of 20%.
(§7) Microtiter panels were created on the day of MIC testing. A 50 μl aliquot of Mueller-Hinton broth (for bacterial strains) or RPMI 1640 (for fungal strains) was delivered to each well, except those in column one of the microtiter panel. The working solution of AMC and each of its components, and comparative agents were delivered to the designated wells in column one. AMC, components, and comparators were serially diluted across the panel. A 50 μl aliquot of bacterial or fungal suspension was then added to each well on the microtiter panel, using a new pipette tip for each aliquot. Panels were incubated at 35° C. for 16-20 h for the E. coli, P. aeruginosa, and S. aureus strains, 20-24 h for the S. pyogenes strain, and 48 h for the C. albicans strain.
(§8) The 10 μl samples were plated on to blood agar and incubated at 35° C. for 24 h (E. coli and P. aeruginosa) or 48 h (S. aureus, S. epidermidis, and S. pyogenes). After incubation, colony counts for each panel well plated were recorded.
(§9) The MIC % is expressed as g/100 ml or ml/100 ml. […] The MBC % is expressed as g/100 ml or ml/100 ml.

S. aureus ATCC 25923 = test: NCCLS broth microdilution MIC and MBC (Example 10); format: cell-based, Staphylococcus aureus
Procedure: as §4, §5, §6, §7, §8, §9

[1] = component at 100%; cited from earlier work
Acute oral toxicity, rat = conditions: rat, in vivo, po
[2] = tested on: S. epidermidis ATCC 12228; test: NCCLS broth microdilution MIC and MBC (Example 10); format: cell-based, Staphylococcus epidermidis
Procedure: as §4, §5, §6, §7, §8, §9

[3] = tested on: Staphylococcus aureus (ATCC 25923); test: Time-Kill test (Example 9); format: cell-based; conditions: Study 509-101; at 30 seconds
Procedure: A panel of “challenge microorganisms,” including select bacteria, yeast, and fungi was used to assess the disinfecting properties of test compounds, e.g., AMC (DPT Laboratories). Specifically, the disinfectant property of test compounds were tested against Staphylococcus aureus (ATCC 25923); Staphylococcus epidermidis (ATCC 12228); Bacillus subtilis (ATCC 19659); Escherichia coli (ATCC 11229); and Pseudomonas aeruginosa (ATCC 15442) bacteria, as well as the yeast Candida albicans (ATCC 10231), and the fungus Trichophyton rubrum (ATCC 28188). The test procedure incorporated the recommendations described in the “Manual of Clinical Microbiology,” 5th ed., edited by A. B. Balows et al., ASM, Washington, as directed by the Federal Register, June 1994. […]
A single lot of test material was prepared at various concentrations, along with multiple compounds prepared in various concentrations and combinations. […] The plates were then incubated, and the average colony forming units (CFU) recovered per milliliter were determined for each contact time. […]
Bacteria and C. albicans from stock cultures were transferred into trypticase soya broth (TSB) and incubated for 18-24 hours at 37° C.±2° C. […] The microbe concentration was measured using a spectrophotometric technique well-known in the art. […]

[4] = Acute inhalation toxicity, rat; conditions: rat, in vivo, inhaled
T. rubrum ATCC 28188 [5] = test: NCCLS broth microdilution MIC and MFC (Example 11); format: cell-based, Trichophyton rubrum
Procedure: Strains of C. albicans (ATCC 10231) and T. rubrum (ATCC 28188) were tested in this study. Strains were removed from frozen stock and subcultured twice on blood agar to ensure that the strains had optimal growth and metabolic status before testing. Strains were tested by NCCLS broth microdilution (M27-A2, 2002) and challenged with AMC solution and its individual components […] ), and isopropanol. Amphotericin B, fluconazole, terbinafine, and Hibiclens were added as comparator compounds. […] Microtiter panels were created on the day of MIC testing. A 50 μl aliquot of RPMI 1640 was delivered to each well except those in column one of the microtiter panel. The working solution of AMC and each of its components, and comparative agents were delivered to the designated wells in column one; AMC, components, and comparators were serially diluted across the panel. A 50 μl aliquot of fungal suspension was then added to each well on the microtiter panel, using a new pipette tip for each aliquot. […] For amphotericin B, the endpoint was read as the complete inhibition of growth. […] MFCs were performed to determine the concentration at which ≧99% of the starting fungal inoculum was killed. […] After incubation, colony counts for each panel well plated were recorded. […] The endpoint for amphotericin B was read as complete inhibition of growth.

P. aeruginosa ATCC 15442 = test: NCCLS broth microdilution MIC and MBC (Example 10); format: cell-based, Pseudomonas aeruginosa
Procedure: as §4, §5, §6, §7, §8, §9

[6] = Acute dermal toxicity, rabbit; conditions: rabbit, in vivo, topical or ocular
T. rubrum ATCC 28188 [7] = test: NCCLS broth microdilution MIC and MFC (Example 10); format: cell-based, Trichophyton rubrum
Procedure: as §4
Amphotericin B, fluconazole, and Hibiclens were added as comparative agents in the fungal panels.
as §6
Microtiter panels were created on the day of MIC testing. A 50 μl aliquot of Mueller-Hinton broth (for bacterial strains) or RPMI 1640 (for fungal strains) was delivered to each well, except those in column one of the microtiter panel. The working solution of AMC and each of its components, and comparative agents were delivered to the designated wells in column one. AMC, components, and comparators were serially diluted across the panel. A 50 μl aliquot of bacterial or fungal suspension was then added to each well on the microtiter panel, using a new pipette tip for each aliquot. Panels were incubated at 35° C. for 16-20 h for the E. coli, P. aeruginosa, and S. aureus strains, 20-24 h for the S. pyogenes strain, and 48 h for the C. albicans strain. T. rubrum panels were incubated for 3 to 4 days before MICs were read. […] Fungal MICs (%) were read using an 80% reduction in the growth endpoint relative to the turbidity of the growth control for AMC, its components, and fluconazole. For amphotericin B, the endpoint was read as the complete inhibition of growth.
MFCs were determined in a similar manner.
The endpoint for amphotericin B was read as complete inhibition of growth. The MIC % is expressed as g/100 ml or ml/100 ml. […] The MFC % is expressed as g/100 ml or ml/100 ml.

[8] = tested on: Trichophyton rubrum (ATCC 28188); test: Time-Kill test (Example 9); format: cell-based; conditions: Table 25, first value column
Procedure: A panel of “challenge microorganisms,” including select bacteria, yeast, and fungi was used to assess the disinfecting properties of test compounds, e.g., AMC (DPT Laboratories). […] The procedure was based on the ASTM procedure entitled, “Standard Test Method for the Assessment of Microbial Activity of Test Materials Using Time-Kill Procedure.”
A single lot of test material was prepared at various concentrations, along with multiple compounds prepared in various concentrations and combinations. These test materials were tested in duplicate against various bacteria, yeast and fungi. To minimize potential buffer interference and to minimize reduction of antimicrobial activity, the volume of the inoculum added to the test material was maintained at, or below, 1% of the total volume of the test. Samples were removed at various contact times. Serial dilutions were performed, and duplicate aliquots were plated. The plates were then incubated, and the average colony forming units (CFU) recovered per milliliter were determined for each contact time. The contact times for the test compounds with S. aureus, E. coli, P. aeruginosa, and C. albicans were 30 sec, 1 min, and 5 min. The contact times for the test compounds with B. subtilis were 1 and 10 min, 1 h, 2 h, 3 h, and 24 h. The contact times for the test compounds with T. rubrum were 30 sec, 1 min and 10 min. The contact temperature was ambient room temperature (20-21° C.).
The fungus, T. rubrum, was inoculated onto Emmon's agar (EA) and incubated at 25-30° C. for 10-15 days. The mycelial mats from mature cultures were removed from the surface of at least 5 plates and macerated with sterile saline (SS) in a sterile glass tissue grinder. The suspension was filtered through sterile glass wool to remove the hyphae.
The density of the conidial suspension was determined by serially diluting the prepared culture in BPDW. Aliquots from selected dilutions were plated on duplicate EA plates. The plates were incubated for 3-5 days at 25-30° C. and then each plate was examined for enumeration.
The suspension was stored at 2-10° C. for 4 weeks before use. On the day of testing, the suspension was adjusted to yield approximately 5.0×10^8 CFU by dilution with BPDW.
Compliant with the ASTM procedure cited above, the challenge microorganism was added to the test material by dispensing 99 ml of the test material into two sterile flasks, each containing a stir bar. The reaction flasks were allowed to equilibrate to the test temperature for at least 10 minutes. The flasks were placed in water baths on stir plates and maintained at the test temperature with stirring. A 1 ml aliquot of the prepared inoculum of the challenge microorganism was added to each flask to begin the contact period. At each contact time, 1 ml aliquot samples were removed and added to tubes containing 9 ml PBDW+. Serial 10-fold dilutions of each sample were then prepared in PBDW dilution blanks. Duplicate aliquots from selected dilutions were plated using the appropriate agar.
Upon completion of all contact periods, all plates were inverted and incubated for the appropriate time and temperature as follows: bacteria and yeast were incubated over 2 nights at 37° C.±2° C., and the fungus was incubated for at least 5 nights at 25-30° C. Following incubation, all plates were removed, the colonies were counted and the CFU recovered per ml at each contact time were calculated.

[9] = component at 100%; cited from earlier work; remark: listed apart in the source
Pseudomonas aeruginosa = test: MIC and MBC determination by doubling dilutions (Study 509-102); format: cell-based; conditions: Inoculum Counts: 8.8 × 10^5
From the text: (§1) Table 2 below indicates the stock dilutions for each test agent, and a breakdown of the resulting concentrations for each of the doubling dilutions performed is summarized in Table 3.
(§2) From the stock dilutions, an initial 1:10 dilution was made (representing tube 1), followed by doubling dilutions (tubes 2-12), as detailed in Table 3.

Escherichia coli = test: as above; format: cell-based; conditions: Inoculum Counts: 9.4 × 10^5
From the text: as §1, §2

C. albicans = test: as above; format: cell-based; conditions: Candida albicans, Inoculum Counts: 6.6 × 10^5
From the text: as §1, §2

S. pyogenes = test: as above; format: cell-based; conditions: Streptococcus pyogenes, Inoculum Counts: 9.8 × 10^5
From the text: as §1, §2

S. epidermidis = test: as above; format: cell-based; conditions: Staphylococcus epidermidis, Inoculum Counts: 9.0 × 10^5
From the text: as §1, §2

Staphylococcus aureus = test: as above; format: cell-based; conditions: Inoculum Counts: 7.5 × 10^6
From the text: as §1, §2

E. coli ATCC 11229 = test: NCCLS broth microdilution MIC and MBC (Example 10); format: cell-based, Escherichia coli; conditions: Escherichia coli, ATCC11229
Procedure: as §4, §5, §6, §7, §8, §9

T. rubrum = test: MIC and MBC determination by doubling dilutions (Study 509-102); format: cell-based, Trichophyton rubrum; conditions: Trichophyton rubrum; Study 509-102; Inoculum Counts: 3.6 × 10^8
From the text: as §1, §2

[10] = in vivo; cited from earlier work
[11] = tested on: Bacillus cereus (strain 96); test: Time-kill test, initial studies (death time, sporicidal activity); format: cell-based; conditions: Conc. 5.0 %
S. aureus (strain 906) = test: Time-kill test, initial studies (death time); format: cell-based, Staphylococcus aureus
From the text: (§3) Time-kill tests were used to measure the disinfecting property of test compounds, e.g., microbiocidal or sporicidal compositions, using select bacterial challenge microorganisms such as the vegetative forms of, e.g., E. coli (strain 1257) S. aureus (strain 906), and Bacillus cereus (strain 96).

E. coli (strain 1257) = test: Time-kill test, initial studies (death time); format: cell-based, Escherichia coli
From the text: as §3

[12] = Example 10, % as g/100 ml or ml/100 ml

CC(C)N1CCN(c2ccc(N3CCN(c4ccc(OC[C@H]5OC[C@](Cn6cncn6)(c6ccc(F)cc6F)O5)cc4)CC3)cc2)C1=O [Azoline]
activity relative to itraconazole (dermatophyte infections): 5 times

CCCCCCCCCCCCCCCC[n+]1ccccc1 [CPC, Cetyl Pyridinium Chloride]
MBC, % (S. pyogenes ATCC 19615; [12]): <=0.0007%
MBC (S. pyogenes ATCC 19615; Streptococcus pyogenes, ATCC19615): ≤ 7 µg/mL
MBC, % (S. aureus ATCC 25923; [12]): <=0.0007%
MBC (S. aureus ATCC 25923; Staphylococcus aureus, ATCC25923): ≤ 7 µg/mL
Rabbit Dermal LD50 [1]: >2,000 mg/Kg
LD50 (Acute oral toxicity, rat): 20000 mg/kg
MCB (μg/ml) [2]: (<=7) μg/ml
MCB, % ([2]; % as g/100 ml or ml/100 ml): <=0.0007%
reduction of S. aureus count [3]: 2 log10
LC50 [4]: 9 µg/mL
MFC, % (T. rubrum ATCC 28188 [5]; Example 11): ≤ 0.0007%
MFC (T. rubrum ATCC 28188 [5]; Trichophyton rubrum, ATCC28188): ≤ 7 µg/mL
MBC, % (P. aeruginosa ATCC 15442; [12]): 0.04%
MBC (P. aeruginosa ATCC 15442; Pseudomonas aeruginosa, ATCC15442): 400 µg/mL
LD50 [6]: > 20000 mg/kg
MFC, % (T. rubrum ATCC 28188 [7]; Example 10, 99.9% inhibition of growth): ≤ 0.0007%
MFC (T. rubrum ATCC 28188 [7]; Trichophyton rubrum, ATCC28188): ≤ 7 µg/mL
30-Second Log Reduction from Initial T. rubrum CFU Values [8]: 3.4 Logs
Rat Inhalation LC50 [9]: 0.090 µg/mL

O=C(O)c1cn(C2CC2)c2cc(N3CCNCC3)c(F)cc2c1=O [Ciprofloxacin]
MIC (S. pyogenes ATCC 19615; Streptococcus pyogenes, ATCC19615, Example 10): 0.5 µg/mL (≈ 1.51 µM)
MBC (S. pyogenes ATCC 19615; Streptococcus pyogenes, ATCC19615, Example 10, read-out: MBC): 0.5 µg/mL (≈ 1.51 µM)
bactericidal activity (S. aureus ATCC 25923; Example 10, MBC within one doubling dilution of the MIC): bactericidal activity
MIC (S. aureus ATCC 25923; Staphylococcus aureus, ATCC25923, Example 10): 0.5 µg/mL (≈ 1.51 µM)
MBC (S. aureus ATCC 25923; Staphylococcus aureus, ATCC25923, Example 10, read-out: MBC): 0.5 µg/mL (≈ 1.51 µM)
MCB [2]: 0.25 µg/mL
bactericidal activity ([2]; MBC within one doubling dilution of the MIC): bactericidal activity
MIC ([2]; Staphylococcus epidermidis, ATCC12228): 0.25 µg/mL (≈ 0.754 µM)
MBC (Pseudomonas aeruginosa): > 0.1 µg/mL
MIC (Pseudomonas aeruginosa): > 0.1 µg/mL
MBC (Escherichia coli): > 0.1 µg/mL
MIC (Escherichia coli): > 0.1 µg/mL
MBC (C. albicans): > 0.1 µg/mL
MIC (C. albicans): > 0.1 µg/mL
MBC (S. pyogenes): > 0.1 µg/mL
MIC (S. pyogenes): > 0.1 µg/mL
MBC (S. epidermidis): > 0.1 µg/mL
MIC (S. epidermidis): > 0.1 µg/mL
MBC (Staphylococcus aureus): > 0.1 µg/mL
MIC (Staphylococcus aureus): > 0.1 µg/mL
MIC (P. aeruginosa ATCC 15442; Pseudomonas aeruginosa, ATCC15442, Example 10): 0.12 µg/mL (≈ 0.362 µM)
MBC (P. aeruginosa ATCC 15442; Pseudomonas aeruginosa, ATCC15442, Example 10, read-out: MBC): 0.5 µg/mL (≈ 1.51 µM)
MIC (E. coli ATCC 11229): ≤ 0.03 µg/mL
MBC (T. rubrum): > 0.1 µg/mL
MIC (T. rubrum): > 0.1 µg/mL

C=C1/C(=C/C=C2\CCC[C@]3(C)[C@@H]([C@@H](C)CCC(=O)N4CCCCC4)CC[C@@H]23)C[C@@H](O)C[C@@H]1O [Ecalcidene]
dose with immunological effects, times lower than doses causing toxicity associated with hypercalcemia [10]: 10-100 times

Monoglycinatecopper chloride complex
Death time of test-microorganisms (min) B. cereus [11]: >360 min
Death time of test-microorganisms (min) S. aureus (S. aureus (strain 906); Conc. 0.1 %): >30 min
Death time of test-microorganisms (min) S. aureus (S. aureus (strain 906); Conc. 0.2 %): >30 min
Death time of test-microorganisms (min) S. aureus (S. aureus (strain 906); Conc. 0.5 %): >30 min
Death time of test-microorganisms (min) S. aureus (S. aureus (strain 906); Conc. 5.0 %): >30 min
Death time of test-microorganisms (min) E. coli (E. coli (strain 1257); Conc. 0.1 %): >30 min
Death time of test-microorganisms (min) E. coli (E. coli (strain 1257); Conc. 0.2 %): 30 min
Death time of test-microorganisms (min) E. coli (E. coli (strain 1257); Conc. 0.5 %): 15 min
